Assay results from ChEMBL document CHEMBL1201862, “PubChem BioAssay data set” (2004).
Activity calls are given as the source filed them.

How the values were obtained:
Hexokinase = target: T1, Hexokinase (Trypanosoma brucei, UniProt Q38C41); test: Confirmation assay for inhibitors of Trypanosoma brucei hexokinase 1-Analogue-first series. [Related pubchem assays (depositor defined):AID1430, AID1632, AID2516, AID2560, AID2579, AID2600, AID449725, AID492951]; assay type: functional
T1 sequence (Q38C41 whole entry): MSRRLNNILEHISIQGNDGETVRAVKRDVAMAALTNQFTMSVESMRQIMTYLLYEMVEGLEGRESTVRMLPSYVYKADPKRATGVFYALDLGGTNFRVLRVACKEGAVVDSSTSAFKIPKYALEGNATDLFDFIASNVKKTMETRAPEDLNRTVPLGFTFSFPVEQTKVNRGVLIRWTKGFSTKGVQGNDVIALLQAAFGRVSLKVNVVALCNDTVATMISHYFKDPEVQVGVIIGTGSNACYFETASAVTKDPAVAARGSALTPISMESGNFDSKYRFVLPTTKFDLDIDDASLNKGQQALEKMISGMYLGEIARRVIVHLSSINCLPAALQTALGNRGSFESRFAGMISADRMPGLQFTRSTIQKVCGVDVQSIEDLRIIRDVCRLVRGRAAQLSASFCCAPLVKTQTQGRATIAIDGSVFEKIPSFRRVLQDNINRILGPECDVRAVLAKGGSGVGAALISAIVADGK

[1] = target: Glucose-6-phosphate 1-dehydrogenase (Homo sapiens, UniProt P11413); test: inhibition of Homo sapiens G6PD, dose series – biochemical, fluorescence, selectivity assay for P. falciparum G6PD inhibitor project, dose response (AID 504792); assay type: functional
[2] = viability loss in HeLa cells – cytotoxicity control for MgcRacGAP inhibitor project, dose response (AID 624300); assay type: functional
[3] = target: T2, Rac GTPase-activating protein 1 (Homo sapiens, UniProt Q9H0H5); test: blockers of MgcRacGAP-driven Rac1 GTP hydrolysis – biochemical, ADP Hunter fluorescence, primary and confirmatory, confirmation (AID 624330); assay type: functional
T2 sequence (Q9H0H5 whole entry): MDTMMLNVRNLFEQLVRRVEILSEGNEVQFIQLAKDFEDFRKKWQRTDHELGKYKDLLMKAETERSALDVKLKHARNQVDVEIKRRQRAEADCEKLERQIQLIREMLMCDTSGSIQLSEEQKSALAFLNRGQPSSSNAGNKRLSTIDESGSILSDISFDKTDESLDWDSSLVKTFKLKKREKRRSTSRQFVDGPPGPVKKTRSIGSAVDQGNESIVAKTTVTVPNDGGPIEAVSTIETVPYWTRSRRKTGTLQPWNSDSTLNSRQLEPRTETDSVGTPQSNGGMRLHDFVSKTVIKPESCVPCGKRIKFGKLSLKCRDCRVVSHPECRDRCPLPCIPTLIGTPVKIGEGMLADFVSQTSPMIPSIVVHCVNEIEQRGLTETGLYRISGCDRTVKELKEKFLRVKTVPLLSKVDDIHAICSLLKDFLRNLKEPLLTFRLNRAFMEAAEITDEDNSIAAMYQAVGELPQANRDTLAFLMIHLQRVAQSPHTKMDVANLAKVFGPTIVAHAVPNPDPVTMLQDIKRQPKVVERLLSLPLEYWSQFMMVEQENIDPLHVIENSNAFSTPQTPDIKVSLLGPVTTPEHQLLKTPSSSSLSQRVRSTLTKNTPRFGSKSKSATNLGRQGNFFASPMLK

cells [4] = assay type: functional, cell-based
[5] = Trypanosoma cruzi growth suppression in host cells – NIH3T3 host cells, beta-gal luminescence, confirmation (AID 2044); assay type: functional, cell-based;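 further: intracellular parasites grown in NIH/3T3 mouse fibroblasts as host cells; luminescent beta-galactosidase reporter signal from transgenic T. cruzi replicating inside host cells; inhibitors lower the luminescence signal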
cells [6] = assay type: functional, cell-based; remark: listed apart in the source
[7] = NIH3T3 cell viability loss – ATP luminescence, mouse fibroblasts, counter-screen, dose response (AID 2010); assay type: functional, cell-based;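 further: cells exposed to compound for about 90 hours before reading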
[8] = target: T3, Short transient receptor potential channel 4 (Mus musculus, UniProt Q9QUQ5); test: block of DAMGO-driven TRPC4 calcium entry – cell-based, HEK293 TRPC4/mu-opioid, Fluo-4 calcium, dose response (AID 434942); assay type: functional;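 further: potency of inhibitors blocking the TRPC4 calcium response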
T3 sequence (Q9QUQ5 whole entry): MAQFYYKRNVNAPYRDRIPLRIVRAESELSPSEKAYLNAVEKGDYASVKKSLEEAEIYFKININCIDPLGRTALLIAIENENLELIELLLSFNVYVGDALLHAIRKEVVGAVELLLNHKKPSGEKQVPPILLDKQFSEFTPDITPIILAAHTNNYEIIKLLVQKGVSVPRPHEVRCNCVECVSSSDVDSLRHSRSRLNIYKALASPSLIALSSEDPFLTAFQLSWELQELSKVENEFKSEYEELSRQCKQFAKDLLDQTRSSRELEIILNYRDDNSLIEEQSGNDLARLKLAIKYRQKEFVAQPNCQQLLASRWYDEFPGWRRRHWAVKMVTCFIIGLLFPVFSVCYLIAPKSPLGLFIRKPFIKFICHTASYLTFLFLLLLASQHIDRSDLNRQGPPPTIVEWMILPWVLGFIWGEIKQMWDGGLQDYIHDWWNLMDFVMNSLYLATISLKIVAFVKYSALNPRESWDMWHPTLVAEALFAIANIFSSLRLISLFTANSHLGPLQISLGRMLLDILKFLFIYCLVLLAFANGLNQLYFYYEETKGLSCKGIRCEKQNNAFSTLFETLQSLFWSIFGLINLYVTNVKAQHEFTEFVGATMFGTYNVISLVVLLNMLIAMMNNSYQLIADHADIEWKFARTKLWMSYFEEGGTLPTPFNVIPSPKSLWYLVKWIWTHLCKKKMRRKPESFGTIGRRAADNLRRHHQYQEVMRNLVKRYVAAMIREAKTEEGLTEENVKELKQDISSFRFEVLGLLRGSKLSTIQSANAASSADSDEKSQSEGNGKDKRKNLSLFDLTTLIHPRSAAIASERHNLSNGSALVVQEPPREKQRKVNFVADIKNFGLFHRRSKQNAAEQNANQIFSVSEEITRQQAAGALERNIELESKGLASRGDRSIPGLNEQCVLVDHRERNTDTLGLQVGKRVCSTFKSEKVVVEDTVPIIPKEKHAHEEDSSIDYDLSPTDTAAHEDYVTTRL

INS1 = test: INS-1E survival protection against cytokine death – cell-based, luminescence, retest, dose response (AID 449756); assay type: functional; conditions: Rattus norvegicus;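 further: cell death triggered by IL-1 beta plus TNF-alpha plus IFN-gamma mixture; protective hits raise ATP signal compared with cytokine alone wells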
[9] = target: T4, DNA repair and recombination protein RAD54-like (Homo sapiens, UniProt Q92698); test: RAD54 Holliday junction migration blockers – biochemical, fluorescence, cherry-picked samples, dose series, confirmation (AID 651657); assay type: functional
T4 sequence (Q92698 whole entry): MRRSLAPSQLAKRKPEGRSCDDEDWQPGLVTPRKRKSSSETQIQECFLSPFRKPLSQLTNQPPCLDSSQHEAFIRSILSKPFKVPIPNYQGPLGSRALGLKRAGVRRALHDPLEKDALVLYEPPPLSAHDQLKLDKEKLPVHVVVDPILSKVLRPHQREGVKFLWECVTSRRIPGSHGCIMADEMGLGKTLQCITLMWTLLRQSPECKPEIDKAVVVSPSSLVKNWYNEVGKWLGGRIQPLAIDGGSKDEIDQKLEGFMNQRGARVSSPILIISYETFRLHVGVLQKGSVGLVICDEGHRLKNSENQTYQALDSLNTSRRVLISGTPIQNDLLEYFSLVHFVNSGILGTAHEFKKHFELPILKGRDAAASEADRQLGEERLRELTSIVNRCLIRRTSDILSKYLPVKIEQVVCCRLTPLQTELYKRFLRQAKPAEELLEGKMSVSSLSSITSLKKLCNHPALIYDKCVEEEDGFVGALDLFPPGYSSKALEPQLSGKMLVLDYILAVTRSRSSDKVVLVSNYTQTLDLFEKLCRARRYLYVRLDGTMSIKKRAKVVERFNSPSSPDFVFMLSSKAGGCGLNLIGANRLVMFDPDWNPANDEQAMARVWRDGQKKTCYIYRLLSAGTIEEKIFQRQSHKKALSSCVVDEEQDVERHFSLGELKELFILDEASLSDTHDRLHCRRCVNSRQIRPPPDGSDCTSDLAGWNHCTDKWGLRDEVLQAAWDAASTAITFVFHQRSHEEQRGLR

[10] = target: T5, DNA repair protein RAD52 homolog (Homo sapiens, UniProt P43351); assay type: functional, biochemical
T5 sequence (P43351 whole entry): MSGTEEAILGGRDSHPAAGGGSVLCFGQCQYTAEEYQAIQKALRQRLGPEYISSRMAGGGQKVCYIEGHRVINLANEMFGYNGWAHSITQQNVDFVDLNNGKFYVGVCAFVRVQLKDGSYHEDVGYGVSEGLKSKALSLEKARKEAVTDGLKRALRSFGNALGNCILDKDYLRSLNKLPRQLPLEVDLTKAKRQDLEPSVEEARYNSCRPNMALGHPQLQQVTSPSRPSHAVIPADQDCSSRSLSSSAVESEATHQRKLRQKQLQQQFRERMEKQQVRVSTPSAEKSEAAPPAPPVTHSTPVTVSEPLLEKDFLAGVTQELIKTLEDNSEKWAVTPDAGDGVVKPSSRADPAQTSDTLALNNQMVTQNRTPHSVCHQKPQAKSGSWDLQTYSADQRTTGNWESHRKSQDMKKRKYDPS

[11] = target: T6, High affinity choline transporter 1 (Homo sapiens, UniProt Q9GZV3); test: human choline transporter blockers, potency – cell-based, 5-point CRC, membrane potential dye, dose response (AID 504840); assay type: functional
T6 sequence (Q9GZV3 whole entry): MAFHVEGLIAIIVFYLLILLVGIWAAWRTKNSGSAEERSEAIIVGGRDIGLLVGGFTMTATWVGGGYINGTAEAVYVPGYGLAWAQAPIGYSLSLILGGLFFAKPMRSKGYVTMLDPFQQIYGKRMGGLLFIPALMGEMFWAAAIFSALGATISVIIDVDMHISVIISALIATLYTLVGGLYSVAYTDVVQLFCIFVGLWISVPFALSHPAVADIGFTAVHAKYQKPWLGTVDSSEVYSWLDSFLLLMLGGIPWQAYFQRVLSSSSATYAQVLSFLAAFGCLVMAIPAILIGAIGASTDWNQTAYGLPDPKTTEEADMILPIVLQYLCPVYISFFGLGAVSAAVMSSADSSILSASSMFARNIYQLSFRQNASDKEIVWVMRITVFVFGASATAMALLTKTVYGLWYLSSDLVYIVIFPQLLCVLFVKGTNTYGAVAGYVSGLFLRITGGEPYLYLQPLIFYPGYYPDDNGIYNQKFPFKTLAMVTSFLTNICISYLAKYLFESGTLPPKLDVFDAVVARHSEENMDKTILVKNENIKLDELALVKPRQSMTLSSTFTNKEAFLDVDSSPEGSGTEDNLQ

Protein skinhead-1 = target: T7, Protein skinhead-1 (Caenorhabditis elegans, UniProt P34707); assay type: functional
T7 sequence (P34707 whole entry): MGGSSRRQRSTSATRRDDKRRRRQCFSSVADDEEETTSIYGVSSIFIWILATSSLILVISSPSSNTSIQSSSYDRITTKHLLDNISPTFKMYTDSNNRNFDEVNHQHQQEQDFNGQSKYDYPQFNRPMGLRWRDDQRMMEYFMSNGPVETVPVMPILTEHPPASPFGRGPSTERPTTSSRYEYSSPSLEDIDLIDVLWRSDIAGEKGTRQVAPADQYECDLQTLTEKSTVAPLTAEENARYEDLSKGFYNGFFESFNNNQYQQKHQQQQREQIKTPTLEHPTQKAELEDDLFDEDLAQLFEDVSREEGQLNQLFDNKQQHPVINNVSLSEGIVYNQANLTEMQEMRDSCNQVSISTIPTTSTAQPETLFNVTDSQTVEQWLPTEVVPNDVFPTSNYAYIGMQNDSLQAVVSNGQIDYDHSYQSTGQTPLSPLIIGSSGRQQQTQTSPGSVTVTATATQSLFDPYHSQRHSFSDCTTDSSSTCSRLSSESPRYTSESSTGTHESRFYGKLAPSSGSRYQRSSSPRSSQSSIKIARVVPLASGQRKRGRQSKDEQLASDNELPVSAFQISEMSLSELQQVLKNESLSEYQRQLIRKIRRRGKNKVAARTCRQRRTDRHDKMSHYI

[12] = microbe, parasite or virus in culture; assay type: functional; conditions: Mycobacterium tuberculosis
[13] = Luminescence Cell-Based Dose Retest to Confirm Inhibitors of Cancer Stem Cells. [Related pubchem assays (depositor defined):AID2717, AID2721]; assay type: functional; conditions: Homo sapiens
[14] = Fluorescence-based cell-based high throughput dose response assay for inhibitors of the interaction of nucleotide-binding oligomerization domain containing 2 (NOD2) and the receptor-interacting serine-threonine kinase 2 (RIPK2).; assay type: functional; conditions: Homo sapiens
Paired box protein Pax-8 = Paired box protein Pax-8 (Homo sapiens, UniProt Q06710); test: PAX8 transcriptional activity inhibition in RMG-I – RMG-I cells, luciferase, cherry-pick, dose response (AID 687027); assay type: functional, cell-based;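 further: luciferase reporter driven by Pax8 target thyroperoxidase promoter measured by SteadyGlo luminescence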
Paired box protein Pax-8, sequence (Q06710 whole entry): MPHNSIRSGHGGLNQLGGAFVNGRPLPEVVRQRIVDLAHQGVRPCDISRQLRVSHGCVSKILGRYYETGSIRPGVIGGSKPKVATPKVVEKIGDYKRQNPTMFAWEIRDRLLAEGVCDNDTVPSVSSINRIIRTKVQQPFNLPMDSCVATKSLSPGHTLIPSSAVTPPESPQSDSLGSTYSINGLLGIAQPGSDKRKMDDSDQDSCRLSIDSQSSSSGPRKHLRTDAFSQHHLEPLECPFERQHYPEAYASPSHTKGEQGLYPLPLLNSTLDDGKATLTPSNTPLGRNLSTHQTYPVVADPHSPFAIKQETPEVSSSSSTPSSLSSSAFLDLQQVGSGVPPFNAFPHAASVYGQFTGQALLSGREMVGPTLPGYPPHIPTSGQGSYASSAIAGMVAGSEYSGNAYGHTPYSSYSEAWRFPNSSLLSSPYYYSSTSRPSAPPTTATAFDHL

Glucose-6-phosphate 1-dehydrogenase, sequence (P11413 whole entry): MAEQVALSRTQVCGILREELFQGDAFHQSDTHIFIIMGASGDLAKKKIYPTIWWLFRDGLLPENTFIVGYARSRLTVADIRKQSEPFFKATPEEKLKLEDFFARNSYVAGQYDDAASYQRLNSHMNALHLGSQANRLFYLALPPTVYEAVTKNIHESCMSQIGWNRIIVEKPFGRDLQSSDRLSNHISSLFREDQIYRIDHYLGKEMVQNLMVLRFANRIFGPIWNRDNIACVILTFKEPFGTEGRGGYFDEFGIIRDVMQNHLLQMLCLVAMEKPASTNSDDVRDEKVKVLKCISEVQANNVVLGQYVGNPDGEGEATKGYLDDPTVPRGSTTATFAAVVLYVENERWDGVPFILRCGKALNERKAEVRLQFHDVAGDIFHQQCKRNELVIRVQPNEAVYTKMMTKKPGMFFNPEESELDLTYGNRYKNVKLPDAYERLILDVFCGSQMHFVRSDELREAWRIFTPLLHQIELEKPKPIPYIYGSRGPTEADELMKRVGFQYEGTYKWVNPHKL

| Structure (SMILES) | CC50 [2] | IC50 [3] | EC50 [5] | EC50 [7] | AC50 [9] | AC50 [10] | also measured |
| --- | --- | --- | --- | --- | --- | --- | --- |
| O=c1c2ccccc2sn1-c1ccccc1F | 72.2 µM (active) | 41 µM (active) |  |  |  |  | IC50 (Hexokinase): 2.26 µM (active); IC50 [1]: 17.8 µM (active) |
| c1ccc(CNc2c3ccccc3nc3ccccc23)cc1 |  |  | 0.931 µM (active) | 8.87 µM (active) | 5.21 µM (active) | 12.1 µM (active) | EC50 (cells [4]): > 350 µM (not active); EC50 (cells [6]): > 350 µM (not active); EC50 [8]: 1.33 µM (active); AC50 (INS1): 3.79 µM (active) |
| Cc1cc(-c2ccccc2)nc(N/N=C/c2ccc(N(C)C)cc2)n1 | 100 µM (active) | 74.7 µM (active) |  |  |  |  |  |
| CCN1CCN(c2cc(C)c3cc(NC(=S)N4CCCCC4)ccc3n2)CC1 |  |  | 2.28 µM (active) | > 60 µM (not active) | 100 µM (inactive) | 14.1 µM (active) | IC50 [11]: 12.6 µM (active); IC50 (Protein skinhead-1): > 100 µM (inactive) |
| CN1CCN(c2ccc(S(=O)(=O)N3CCCCC3)cc2NC(=O)/C=C/c2ccc(Cl)c([N+](=O)[O-])c2)CC1 |  |  | 1.85 µM (active) | > 60 µM (not active) |  |  | CC50 [12]: 23.3 µM (active); AC50 [13]: 5.48 µM (active); IC50 [14]: 6.18 µM (active); AC50 (Paired box protein Pax-8): 12.6 µM (active) |
